Experimental data as given in ChEMBL document CHEMBL3425453, “Luciferin and derivatives as a DYRK selective scaffold for the design of protein kinase inhibitors” (Eur J Med Chem, 2015).

Target: Cyclin-dependent kinase 2 (Homo sapiens) (UniProt P24941)

| Tm [°C] | Structure (SMILES) |
| --- | --- |
| 43.4 | O=C(O)[C@H]1CSC(c2ccc3cc(O)ccc3n2)=N1 |
| 43.9 | O=C(O)[C@H]1CSC(c2ccc3cccc(O)c3n2)=N1 |
